# Data: US20070275981A1, “(Hetero)Cyclycarboxamides for Controlling Pathogenic Fungi” (priority 2004, published 2007)
# Key:
# Botrytis cinerea = assay: Activity against gray mold on bell pepper leaves caused by Botrytis cinerea, protective application (Use Example 6); assay type: in vivo; details: 63 ppm active compound, 5 days, untreated plants 90% affected
# Procedure: The mixture was then made up to 100 ml with water.
# The next day, the treated plants were inoculated with an aqueous spore suspension of Botrytis cinerea in a 2% strength aqueous biomold solution having a density of 1.7×10^6 spores/ml. The plants were then placed in a dark acclimatized chamber at temperatures between 22 and 24° C. and high atmospheric humidity. After 5 days, the extent of the fungal infection could be determined visually by the infection of the leaf area.
# Plasmopara viticola [1] = assay: Activity against Peronospora of grapevines caused by Plasmopara viticola (Use Example 1, inoculation the next day); assay type: in vivo, Plasmopara viticola on potted grapevines; details: 250 ppm active compound, spray to runoff, inoculated next day; untreated plants 80% infected
# Procedure: For the use examples 1 to 3, the active compounds were prepared as a stock solution comprising 0.25% by weight of active compound in acetone or dimethyl sulfoxide (DMSO). 1% by weight of the emulsifier Uniperol® EL (wetting agent having emulsifying and dispersant action based on ethoxylated alkylphenols) was added to this solution, and the mixture was diluted with water to the desired concentration.
# Leaves of potted grapevines were sprayed to runoff point with an aqueous suspension having the concentration of active compounds stated below. The next day, the undersides of the leaves were inoculated with an aqueous sporangia suspension of Plasmopara viticola. The grapevines were then initially placed in a water vapor-saturated chamber at 24° C. for 48 hours and then in a greenhouse at temperatures between 20 and 30° C. for 5 days. After this time, the plants were again placed in a humid chamber for 16 hours to promote sporangiophore eruption. The extent of the development of the infection on the undersides of the leaves was then determined visually.
# [2] = test system: Erysiphe [syn. Blumeria] graminis forma specialis. tritici; assay: Activity against mildew of wheat caused by Erysiphe [syn. Blumeria] graminis forma specialis. tritici (Use Example 7); assay type: in vivo; details: 250 ppm active compound, protective 24 h, 7 days; untreated plants 70% infected
# Procedure: (§1) For the use examples 4 to 7, the active compounds were prepared as a stock solution comprising 25 mg of active compound which was made up with a mixture of acetone and/or DMSO and the emulsifier Uniperol® EL in a volume ratio of solvent/emulsifier of 99:1 to 10 ml. The mixture was then made up to 100 ml with water. This stock solution was diluted to the active compound concentration stated below using the solvent/emulsifier/water mixture described.
# Leaves of potted wheat seedlings of the cultivar “Kanzler” were sprayed to runoff point with an aqueous suspension having the concentration of active compound stated below. 24 h after the spray coating had dried on, the leaves were dusted with spores of mildew of wheat (Erysiphe [syn. Blumeria] graminis forma specialis. tritici). The plants were then placed in a greenhouse at temperatures between 20 and 24° C. and 60 to 90% relative atmospheric humidity. After 7 days, the extent of the fungal infection was determined visually by the infection of the leaf area.
# Plasmopara viticola [3] = assay: Activity against Peronospora of grapevines caused by Plasmopara viticola, 7 day protective application (Use Example 5); assay type: in vivo, Plasmopara viticola on potted grapevines; details: 250 ppm active compound, untreated plants 50% infected
# Procedure: as §1
# Leaves of potted grapevines were sprayed to runoff point with an aqueous suspension having the concentration of active compound stated below. To be able to assess the persistency of the substances, the plants were, after the spray coating had dried on, placed in a greenhouse for 7 days. The undersides of the leaves were then inoculated with an aqueous sporangia suspension of Plasmopara viticola. The grapevines were then placed initially for 48 hours in a water vapor-saturated chamber at 24° C. and then for 5 days in the greenhouse at temperatures between 20 and 30° C. After this time, the plants were again placed in a humid chamber for 16 hours, to accelerate sporangiophore eruption. The extent of the development of the infection on the undersides of the leaves was then determined visually.
smiles,measurement,setting,value
Cn1cc(C(=O)Nc2ccnn2-c2ccc(-c3ccccc3)cc2)c(C(F)(F)F)n1 [example 43],infection (leaf area),Botrytis cinerea,at most 10%
Cc1ccsc1C(=O)Nc1cc(C(F)(F)F)nn1-c1ccc(Br)cc1 [example 18],infection,Plasmopara viticola [1],at most 20%
Cc1ccc(-n2nccc2NC(=O)c2cccnc2Cl)cc1 [example 31],infection (leaf area),[2],at most 15%
Cc1nn(C)cc1C(=O)Nc1cc(C(F)(F)F)nn1-c1ccccc1 [example 10],infection,Plasmopara viticola [3],at most 20%
